Assay results as given in patent US4281009A, “Hydantoin derivatives” (Nippon Zoki Pharmaceutical Co., Ltd., priority 1978, dated 1981).

Experiments:
[1] = Acute toxicity test (LD50, Litchfield-Wilcoxon), rats; conditions: rat, in vivo, ip, intraperitoneal
Protocol: Toxicity tests were carried out by intraperitoneal administration of the compound of the present invention to groups each comprising 10 ICR-strain mice and SD-strain rats. LD50 was calculated by the Litchfield-Wilcoxon method based on the number of death 72 hours after the administration.

dd-strain male mice [2] = assay: Inhibitory effect on spontaneous motor activities (Animex method); assay type: in vivo; conditions: after 60 minutes
Protocol: 4.1 Inhibitory effect on spontaneous motor activities:
Groups each comprising 8-16 dd-strain male mice were used. The compounds of the present invention were given intraperitoneally. After 60 minutes, spontaneous motor activities for 15 minutes were measured by the Animex method.

[3] = test system: normal mice and SART stress mice; assay: Analgesic effect, tail pressure method (Randall-Selitto's device); assay type: in vivo, mice (ddY-strain male); conditions: for change in vivo at 100 mg/kg / change in vivo at 160 mg/kg: Mus musculus; for change in vivo at 160 mg/kg: peroral 160 mg/kg
Procedure, shortened: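 Randall-Selitto tail pressure threshold measured 60 min after intraperitoneal dosing, expressed as post/pre-dose pressure ratio versus vehicle control (0.5% CMC-Na or 0.5% Tween 80, 10 ml/kg). For oral dosing, mean of readings at 30, 60, 90 and 120 min used.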

dd-strain male mice [4] = assay: Inhibitory effect on Tremorine-induced tremor; assay type: in vivo; conditions: 100 mg/kg intraperitoneal; tremorine 10 mg/Kg
Protocol: 9. Inhibitory effect on Tremorine-induced tremor:
Groups of mice each comprising 10-40 dd-strain male mice were used. Effect of the compounds of the present invention on tremor caused by tremorine was examined. The compounds of the present invention or DPH was given intraperitoneally. 45 minutes thereafter, 10 mg/Kg of tremorine was given intraperitoneally for inducing the tremor.

[5] = ip, 1 h, SART stress mice, intraperitoneal 100 mg/kg, 60 minutes
[6] = ip, 1 h, normal mice, intraperitoneal 100 mg/kg, 60 minutes
[7] = po, SART stress mice, peroral 100 mg/kg, average of 30, 60, 90 and 120 minutes
[8] = po, normal mice, peroral 100 mg/kg, average of 30, 60, 90 and 120 minutes
[9] = SART stress mice, intraperitoneal 50 mg/kg, 60 minutes
[10] = SART stress mice, peroral 50 mg/kg, average of 30, 60, 90 and 120 minutes
[11] = normal mice, intraperitoneal 50 mg/kg, 60 minutes
[12] = normal mice, peroral 50 mg/kg, average of 30, 60, 90 and 120 minutes
[13] = po, SART stress mice, average of 30, 60, 90 and 120 minutes
[14] = po, normal mice, average of 30, 60, 90 and 120 minutes

Row | Compound | LD50 at 72 h ([1]; female) [mg/kg] | LD50 at 72 h ([1]; male) [mg/kg] | Inhibitory effect on spontaneous motor activities (dd-strain male mice [2]; 50 mg/kg intraperitoneal) [%] | Inhibitory effect on spontaneous motor activities (dd-strain male mice [2]; 100 mg/kg intraperitoneal) [%] | change in vivo at 100 mg/kg [3, 5] [%] | change in vivo at 100 mg/kg [3, 6] [%] | change in vivo at 100 mg/kg [3, 7] [%] | change in vivo at 100 mg/kg [3, 8] [%] | Analgesic effect [3, 9] [%] | Analgesic effect [3, 10] [%] | Analgesic effect [3, 11] [%] | Analgesic effect [3, 12] [%] | Inhibitory effect on spontaneous motor activities (dd-strain male mice [2]; 75 mg/kg intraperitoneal) [%] | change in vivo at 160 mg/kg [3, 13] [%] | change in vivo at 160 mg/kg [3, 14] [%] | Inhibitory effect on Tremorine-induced tremor (dd-strain male mice [4]) [%] | Inhibitory effect on spontaneous motor activities (dd-strain male mice [2]; 125 mg/kg intraperitoneal) [%]
1 | O=C1NC(=O)C(c2cc(O)c(O)c(O)c2)(c2cc(O)c(O)c(O)c2)N1 [Compound 36, 5,5-Bis(3,4,5-trihydroxyphenyl)hydantoin] | 1020 | 1320 | 37.8 | 49.1 | 180 | 67 | 102 | 49.9 | 120.5 | 63.3 | 44.0 | 40.3 |  |  |  |  | 
2 | O=C1NC(=O)C(c2ccc(O)cc2)(c2ccc(O)cc2)N1 [Compound 4, 5,5-Bis(4-hydroxyphenyl)hydantoin] | 1320 | 1370 | 42.4 | 61.4 | 162 | 41.6 | 67.3 | 52.3 | 88.2 | 56.8 | 36.1 | 38.8 | 52.2 | 90.5 | 68.2 | 54 | 
3 | COc1ccc(C2(c3ccc(OC)c(Cl)c3)NC(=O)NC2=O)cc1 (stereo not drawn) [Compound 2, 5-(3-chloro-4-methoxyphenyl)-5-(4-methoxyphenyl)hydantoin] | 1540 | 1600 | 39.8 | 50.1 | 139 | 90.7 | 70 | 37.3 | 79.6 |  | 54.6 |  |  | 88.2 | 50.2 | 38 | 56.3
